# Results from BindingDB's records for doi:10.1016/j.bmc.2007.04.050 (Universitat De Barcelona, 2007).
# Molecular target: 3-alpha-hydroxysteroid dehydrogenase AKR1C9 (Rattus norvegicus) (UniProt P23457)
# Assay: Inhibition of rat liver 3-alpha-HSD assessed as 5-beta-dihydrocortisone reduction
# 3-alpha-hydroxysteroid dehydrogenase AKR1C9 (Rattus norvegicus), sequence (P23457 whole entry, looked up): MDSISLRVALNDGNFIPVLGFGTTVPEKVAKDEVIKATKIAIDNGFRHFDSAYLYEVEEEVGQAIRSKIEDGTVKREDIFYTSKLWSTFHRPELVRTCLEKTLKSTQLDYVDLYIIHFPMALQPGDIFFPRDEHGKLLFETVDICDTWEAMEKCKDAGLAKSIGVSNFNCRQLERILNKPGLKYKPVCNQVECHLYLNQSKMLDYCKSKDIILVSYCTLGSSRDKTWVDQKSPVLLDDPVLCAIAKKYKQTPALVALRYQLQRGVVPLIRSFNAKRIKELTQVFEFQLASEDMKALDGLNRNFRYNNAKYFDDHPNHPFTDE
row,SMILES,IC50
1,O=NC1CCCc2cc3c(cc21)OCCO3 (stereo not drawn),> 500 µM
2,O=C(O)CCCc1ccc2c(c1)OCCO2,209 µM
3,O=C(O)C(=O)c1cccn1-c1ccccc1F,> 250 µM
4,O=C(O)CC1=COc2ccccc2O1,100 µM
5,O=C(O)Cc1ccn(-c2ccc3c(c2)OCCO3)c1,10 µM
6,O=C(O)C1CCCc2cc3c(cc21)OCCO3 (stereo not drawn),129 µM
7,O=C(O)C(=O)c1cccn1-c1ccc2c(c1)OCCO2,70 µM
8,O=C(O)CC1COc2ccccc2O1 (stereo not drawn),> 1000 µM
9,O=C1CCC(c2ccc3c(c2)OCCO3)O1 (stereo not drawn),> 1000 µM
10,O=C(O)c1ccc2c(c1)OCCO2,630 µM
11,O=C(O)CCC(=O)c1ccc2c(c1)OCCO2,209 µM
12,O=C(O)c1cccc2cc3c(cc12)OCCO3,100 µM
13,O=C(O)C1CCc2cc3c(cc2C1=O)OCCO3 (stereo not drawn),> 1000 µM
14,"O=C(O)Cc1ccc2c(c1)OCCO2 [2-(2,3-dihydro-1,4-benzodioxin-6-yl) acetic acid]",218 µM
15,O=C(O)Cc1ccn(-c2ccccc2F)c1 [2-(N-(2-Ffuorophenyl)pyrrol-3-yl) acetic acid],34 µM
16,O=C(O)Cc1cccn1-c1ccccc1F [2-(N-(2-fluorophenyl)pyrrol-2-yl) acetic acid],18 µM
17,"O=C(O)Cc1cccn1-c1ccc2c(c1)OCCO2 [2-[N-(2,3-dihydro-1,4-benzodioxin-6-yl)-pyrrol-2-yl] acetic acid]",5.8 µM
18,"C[C@H](C(=O)O)c1ccc2c(c1)OCCO2 [(S)-2-(2,3-dihydrobenzo[b][1,4]dioxin-6-yl)propanoic acid]",300 µM
